Experimental data published in patent publication US9855230B2 (ViiV Healthcare UK (No. 5) Limited, priority 2014, dated 2018).
Read-outs that look alike come from different tables or passages of the source.

How the values were obtained:
[1] = system: recombinant NL4-3 virus (nef section replaced with Renilla luciferase gene) in MT-2 cells; assay: whole plant or invertebrate; type: cell-based, HIV; details: NL43, luciferase activity in MT-2 cells infected 4-5 days with recombinant NL4-3 virus
From the text: A recombinant NL4-3 proviral clone, in which a section of the nef gene was replaced with the Renilla luciferase gene, was used to make the reference virus used in these studies.
Supernatent was harvested after 2-3 days and the amount of virus present was titered in MT-2 cells using luciferase enzyme activity as a marker by measuring luciferase enzyme activity. Luciferase was quantitated using the EnduRen Live Cell Substrate from Promega (Madison, Wis.). Antiviral activities of compounds toward the recombinant virus were quantified by measuring luciferase activity in MT-2 cells infected for 4-5 days with the recombinant virus in the presence of serial dilutions of the compound.

[2] = Compound cytotoxicity (CC50), XTT-based colorimetric assay; type: cell-based; details: human; uninfected MT2 cells, day 4, XTT assay
Method: Compound cytotoxicity and the corresponding CC50 values were determined using the same protocol as described in the antiviral assay except that uninfected cells were used. Cytotoxicity was assessed on day 4 in uninfected MT2 cells by using a XTT (2,3-bis[2-Methoxy-4-nitro-5-sulfophenyl]-2H-tetrazolium-5-carboxyanilide inner salt)-based colorimetric assay (Sigma-Aldrich, St Louis, Mo.).

SMILES	EC50 ([1]; read-out: Activity) [nM]	CC50 at 4 day [2] [nM]	EC50 ([1]; read-out: EC50) [nM]
COC(=O)Nc1ccc(-n2ccnc2[C@H](Cc2ccccc2)NC(=O)NS(=O)(=O)c2cc(Cl)sc2Cl)cc1 [Example 55, (S)-methyl (4-(2-(1-(3-((2,5-dichlorothiophen-3-yl)sulfonyl)ureido)-2-phenylethyl)-1H-imidazol-1-yl)phenyl)carbamate]	< 100	> 100000	
COc1ccc(-n2ccnc2[C@H](Cc2ccccc2)NC(=O)NS(=O)(=O)c2cccc(Cl)c2Cl)cc1 [Example 56, (S)-2,3-dichloro-N-((1-(1-(4-methoxyphenyl)-1H-imidazol-2-yl)-2-phenylethyl)carbamoyl)benzenesulfonamide]	< 100	> 100000	
CCOc1ccc(-n2ccnc2[C@H](Cc2ccccc2)NC(=O)NS(=O)(=O)c2cccc(Cl)c2Cl)cc1 [Example 57, (S)-2,3-dichloro-N-((1-(1-(4-ethoxyphenyl)-1H-imidazol-2-yl)-2-phenylethyl)carbamoyl)benzenesulfonamide]	< 100	> 100000	30
COc1ccc(-n2ccnc2[C@H](Cc2ccccc2)NC(=O)NS(=O)(=O)c2ccccc2F)cc1 [Example 58, (S)-2-fluoro-N-((1-(1-(4-methoxyphenyl)-1H-imidazol-2-yl)-2-phenylethyl)carbamoyl)benzenesulfonamide]	< 100	> 33000	
Cc1ccccc1S(=O)(=O)NC(=O)N[C@@H](Cc1ccccc1)c1nccn1-c1ccc(-c2ccoc2)cc1 [Example 59, (S)-N-((1-(1-(4-(furan-3-yl)phenyl)-1H-imidazol-2-yl)-2-phenylethyl)carbamoyl)-2-methylbenzenesulfonamide]	< 100	> 33000	
Cc1ccccc1S(=O)(=O)NC(=O)N[C@@H](Cc1ccccc1)c1nccn1-c1ccc(-c2ccsc2)cc1 [Example 60, (S)-2-methyl-N-((2-phenyl-1-(1-(4-(thiophen-3-yl)phenyl)-1H-imidazol-2-yl)ethyl)carbamoyl)benzenesulfonamide]	< 100	> 100000	30
Cc1ccccc1S(=O)(=O)NC(=O)N[C@@H](Cc1ccccc1)c1nccn1-c1ccc(-c2cnn(C)c2)cc1 [Example 61, (S)-2-methyl-N-((1-(1-(4-(1-methyl-1H-pyrazol-4-yl)phenyl)-1H-imidazol-2-yl)-2-phenylethyl)carbamoyl)benzenesulfonamide]	< 100	> 33000	
Cc1ccccc1S(=O)(=O)NC(=O)N[C@@H](Cc1ccccc1)c1nccn1-c1ccc(-c2ccoc2C)cc1 [Example 62, (S)-2-methyl-N-((1-(1-(4-(2-methylfuran-3-yl)phenyl)-1H-imidazol-2-yl)-2-phenylethyl)carbamoyl)benzenesulfonamide]	< 100	> 100000	
COc1ccc(-c2ccc(-n3ccnc3[C@H](Cc3ccccc3)NC(=O)NS(=O)(=O)c3ccccc3C)cc2)cn1 [Example 63, (S)-N-((1-(1-(4-(6-methoxypyridin-3-yl)phenyl)-1H-imidazol-2-yl)-2-phenylethyl)carbamoyl)-2-methylbenzenesulfonamide]	100 to 1000	> 100000	100
O=C(N[C@@H](Cc1ccccc1)c1nccn1-c1ccc(-c2ccoc2)cc1)NS(=O)(=O)c1ccccc1F [Example 64, (S)-2-fluoro-N-((1-(1-(4-(furan-3-yl)phenyl)-1H-imidazol-2-yl)-2-phenylethyl)carbamoyl)benzenesulfonamide]	< 100	> 100000	
Cc1ccccc1S(=O)(=O)NC(=O)N[C@@H](Cc1ccccc1)c1nccn1-c1cccc(-c2ccoc2)c1 [Example 65, (S)-N-((1-(1-(3-(furan-3-yl)phenyl)-1H-imidazol-2-yl)-2-phenylethyl)carbamoyl)-2-methylbenzenesulfonamide]	100 to 1000	> 100000	
Cc1ccccc1S(=O)(=O)NC(=O)N[C@@H](Cc1ccccc1)c1nccn1-c1ccc2c(c1)ncn2C [Example 66, (S)-2-methyl-N-((1-(1-(1-methyl-1H-benzo[d]imidazol-5-yl)-1H-imidazol-2-yl)-2-phenylethyl)carbamoyl)benzenesulfonamide]	100 to 1000	> 100000	340
Cc1ccc2cc(-n3ccnc3[C@H](Cc3ccccc3)NC(=O)NS(=O)(=O)c3ccccc3C)ccc2n1 [Example 67, (S)-2-methyl-N-((1-(1-(2-methylquinolin-6-yl)-1H-imidazol-2-yl)-2-phenylethyl)carbamoyl)benzenesulfonamide]	< 100	> 100000	
Cc1ccccc1S(=O)(=O)NC(=O)N[C@@H](Cc1ccccc1)c1nccn1-c1cccc(N2CCCC2)c1 [Example 68, (S)-2-methyl-N-((2-phenyl-1-(1-(3-(pyrrolidin-1-yl)phenyl)-1H-imidazol-2-yl)ethyl)carbamoyl)benzenesulfonamide]	100 to 1000	> 100000	
Cc1ccccc1S(=O)(=O)NC(=O)N[C@@H](Cc1ccccc1)c1nccn1-c1ccc2ccccc2c1 [Example 69, (S)-2-methyl-N-((1-(1-(naphthalen-2-yl)-1H-imidazol-2-yl)-2-phenylethyl)carbamoyl)benzenesulfonamide]	< 100	> 100000	40
Cc1ccccc1S(=O)(=O)NC(=O)N[C@@H](Cc1ccccc1)c1nccn1-c1ccc2scnc2c1 [Example 70, (S)-N-((1-(1-(benzo[d]thiazol-5-yl)-1H-imidazol-2-yl)-2-phenylethyl)carbamoyl)-2-methylbenzenesulfonamide]	< 100	> 100000	
O=C(N[C@@H](Cc1ccccc1)c1nccn1-c1ccc2scnc2c1)NS(=O)(=O)c1ccccc1F [Example 71, (S)-N-((1-(1-(benzo[d]thiazol-5-yl)-1H-imidazol-2-yl)-2-phenylethyl)carbamoyl)-2-fluorobenzenesulfonamide]	100 to 1000	> 100000	
Cc1nc2cc(-n3ccnc3[C@H](Cc3ccccc3)NC(=O)NS(=O)(=O)c3ccccc3C)ccc2s1 [Example 72, (S)-2-methyl-N-((1-(1-(2-methylbenzo[d]thiazol-5-yl)-1H-imidazol-2-yl)-2-phenylethyl)carbamoyl)benzenesulfonamide]	< 100	> 100000	50
Cc1nc2cc(-n3ccnc3[C@H](Cc3ccccc3)NC(=O)NS(=O)(=O)c3ccccc3F)ccc2s1 [Example 73, (S)-2-fluoro-N-((1-(1-(2-methylbenzo[d]thiazol-5-yl)-1H-imidazol-2-yl)-2-phenylethyl)carbamoyl)benzenesulfonamide]	100 to 1000	> 100000	
Cc1ccccc1S(=O)(=O)NC(=O)N[C@@H](Cc1ccccc1)c1nccn1-c1ccc2sccc2c1 [Example 74, (S)-N-((1-(1-(benzo[b]thiophen-5-yl)-1H-imidazol-2-yl)-2-phenylethyl)carbamoyl)-2-methylbenzenesulfonamide]	< 100	39000	
O=C(N[C@@H](Cc1ccccc1)c1nccn1-c1ccc2c(c1)CCO2)NS(=O)(=O)c1ccccc1F [Example 75, (S)-N-((1-(1-(2,3-dihydrobenzofuran-5-yl)-1H-imidazol-2-yl)-2-phenylethyl)carbamoyl)-2-fluorobenzenesulfonamide]	< 100	> 100000	20
COC(=O)Nc1cccc(-n2ccnc2[C@H](Cc2ccccc2)NC(=O)NS(=O)(=O)c2ccccc2C)c1 [Example 76, (S)-methyl (3-(2-(2-phenyl-1-(3-(o-tolylsulfonyl)ureido)ethyl)-1H-imidazol-1-yl)phenyl)carbamate]	100 to 1000	> 100000	
Cc1ccccc1S(=O)(=O)NC(=O)N[C@@H](Cc1ccccc1)c1nccn1-c1ccc2occc2c1 [Example 77, (S)-N-((1-(1-(benzofuran-5-yl)-1H-imidazol-2-yl)-2-phenylethyl)carbamoyl)-2-methylbenzenesulfonamide]	< 100	> 100000	
O=C(N[C@@H](Cc1ccccc1)c1nccn1-c1ccc2occc2c1)NS(=O)(=O)c1ccccc1F [Example 78, (S)-N-((1-(1-(benzofuran-5-yl)-1H-imidazol-2-yl)-2-phenylethyl)carbamoyl)-2-fluorobenzenesulfonamide]	< 100	> 100000	20
CCCC(=O)Nc1cccc(-n2ccnc2[C@H](Cc2ccccc2)NC(=O)NS(=O)(=O)c2ccccc2C)c1 [Example 79, (S)-N-(3-(2-(2-phenyl-1-(3-(o-tolylsulfonyl)ureido)ethyl)-1H-imidazol-1-yl)phenyl)butyramide]	> 1000	> 100000	
Cc1ccccc1S(=O)(=O)NC(=O)N[C@@H](Cc1ccccc1)c1nccn1-c1cnn(-c2ccccc2)c1 [Example 80, (S)-2-methyl-N-((2-phenyl-1-(1-(1-phenyl-1H-pyrazol-4-yl)-1H-imidazol-2-yl)ethyl)carbamoyl)benzenesulfonamide]	< 100	> 100000	
Cc1ccccc1S(=O)(=O)NC(=O)N[C@@H](Cc1ccccc1)c1nccn1-c1cnn(Cc2ccccc2)c1 [Example 81, (S)-N-((1-(1-(1-benzyl-1H-pyrazol-4-yl)-1H-imidazol-2-yl)-2-phenylethyl)carbamoyl)-2-methylbenzenesulfonamide]	100 to 1000	> 100000	550
